Results: ChEMBL document CHEMBL1143475, “Investigation of factor Xa inhibitors containing non-amidine S1 elements” (Bioorg Med Chem Lett, 2005)

What was measured:
[1] = molecular target: Coagulation factor X (Homo sapiens) (UniProt P00742); experiment: Binding affinity as apparent association constant for human coagulation factor X
[2] = molecular target: Thrombin and coagulation factor X (Homo sapiens) (UniProt P00734+P00742); experiment: Anticoagulant potency against double prothrombin time; format: functional
Chain of Thrombin and coagulation factor X (Homo sapiens) (P00742 whole entry, looked up, other chains not shown): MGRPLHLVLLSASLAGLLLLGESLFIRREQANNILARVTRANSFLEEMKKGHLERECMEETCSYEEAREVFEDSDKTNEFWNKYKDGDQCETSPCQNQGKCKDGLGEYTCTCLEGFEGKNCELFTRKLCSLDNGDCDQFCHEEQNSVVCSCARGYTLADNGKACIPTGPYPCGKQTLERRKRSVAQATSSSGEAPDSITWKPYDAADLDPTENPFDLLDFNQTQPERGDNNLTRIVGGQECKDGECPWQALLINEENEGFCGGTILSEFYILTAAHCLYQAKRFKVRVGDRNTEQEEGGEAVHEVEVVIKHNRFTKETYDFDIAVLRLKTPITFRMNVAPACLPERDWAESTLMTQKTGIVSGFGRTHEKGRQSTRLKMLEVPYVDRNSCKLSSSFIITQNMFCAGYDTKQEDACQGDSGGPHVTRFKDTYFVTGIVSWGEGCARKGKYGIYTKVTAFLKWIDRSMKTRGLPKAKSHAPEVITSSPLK

[3] = molecular target: Urokinase-type plasminogen activator (Homo sapiens) (UniProt P00749); experiment: Binding affinity as apparent association constant for Urokinase
[4] = molecular target: Prothrombin (Homo sapiens) (UniProt P00734); experiment: Binding affinity as apparent association constant for Coagulation factor II
[5] = molecular target: Serine protease 1 (Homo sapiens) (UniProt P07477); experiment: Binding affinity as apparent association constant for Trypsin
Chain of Serine protease 1 (Homo sapiens) (P07477 whole entry): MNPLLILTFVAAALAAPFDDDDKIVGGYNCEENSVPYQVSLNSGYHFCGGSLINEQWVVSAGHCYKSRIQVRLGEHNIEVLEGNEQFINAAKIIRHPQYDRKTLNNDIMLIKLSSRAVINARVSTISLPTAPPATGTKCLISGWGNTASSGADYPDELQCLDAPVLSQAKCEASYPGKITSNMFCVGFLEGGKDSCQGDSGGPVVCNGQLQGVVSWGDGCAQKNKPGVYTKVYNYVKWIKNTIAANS

[6] = molecular target: Plasminogen (Homo sapiens) (UniProt P00747); experiment: Binding affinity as apparent association constant for Plasmin
Chain of Plasminogen (Homo sapiens) (P00747 97-580 limits assumed): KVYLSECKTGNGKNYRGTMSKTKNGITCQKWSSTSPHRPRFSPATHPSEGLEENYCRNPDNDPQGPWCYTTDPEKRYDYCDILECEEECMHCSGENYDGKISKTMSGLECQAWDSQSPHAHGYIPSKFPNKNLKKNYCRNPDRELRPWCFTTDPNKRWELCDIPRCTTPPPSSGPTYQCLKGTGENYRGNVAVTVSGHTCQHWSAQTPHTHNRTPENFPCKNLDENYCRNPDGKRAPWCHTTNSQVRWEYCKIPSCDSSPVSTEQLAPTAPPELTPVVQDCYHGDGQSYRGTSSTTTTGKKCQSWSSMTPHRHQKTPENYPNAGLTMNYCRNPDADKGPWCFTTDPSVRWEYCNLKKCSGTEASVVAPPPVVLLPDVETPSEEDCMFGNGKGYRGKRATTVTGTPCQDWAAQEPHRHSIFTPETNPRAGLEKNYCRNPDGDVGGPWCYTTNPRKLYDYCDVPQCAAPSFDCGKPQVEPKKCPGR
Chain of Plasminogen (Homo sapiens) (P00747 581-810 limits assumed): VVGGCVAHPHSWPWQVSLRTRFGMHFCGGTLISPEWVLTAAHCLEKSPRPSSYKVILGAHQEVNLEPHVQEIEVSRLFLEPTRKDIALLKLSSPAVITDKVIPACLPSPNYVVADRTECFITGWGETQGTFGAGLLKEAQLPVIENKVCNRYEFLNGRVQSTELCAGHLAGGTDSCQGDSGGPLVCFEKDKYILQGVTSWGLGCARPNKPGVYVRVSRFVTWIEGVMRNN

[7] = molecular target: Tissue-type plasminogen activator (Homo sapiens) (UniProt P00750); experiment: Binding affinity as apparent association constant for Tissue plasminogen activator
Chain of Tissue-type plasminogen activator (Homo sapiens) (P00750 36-562 limits assumed): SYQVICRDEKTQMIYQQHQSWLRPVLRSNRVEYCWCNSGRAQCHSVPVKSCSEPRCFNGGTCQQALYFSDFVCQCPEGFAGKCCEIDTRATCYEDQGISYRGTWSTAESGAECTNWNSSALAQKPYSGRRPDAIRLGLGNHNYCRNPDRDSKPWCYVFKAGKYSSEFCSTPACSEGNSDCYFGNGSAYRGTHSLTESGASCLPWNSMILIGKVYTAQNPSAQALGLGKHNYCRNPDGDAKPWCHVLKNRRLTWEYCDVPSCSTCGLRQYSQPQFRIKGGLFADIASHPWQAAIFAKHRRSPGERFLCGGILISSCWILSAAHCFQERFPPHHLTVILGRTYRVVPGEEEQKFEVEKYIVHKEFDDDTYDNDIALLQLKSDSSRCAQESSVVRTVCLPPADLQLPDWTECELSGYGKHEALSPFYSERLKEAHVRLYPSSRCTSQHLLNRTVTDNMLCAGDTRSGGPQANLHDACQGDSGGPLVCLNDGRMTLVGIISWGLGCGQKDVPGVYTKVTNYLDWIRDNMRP

Chain of Coagulation factor X (Homo sapiens) (P00742 41-179 limits assumed): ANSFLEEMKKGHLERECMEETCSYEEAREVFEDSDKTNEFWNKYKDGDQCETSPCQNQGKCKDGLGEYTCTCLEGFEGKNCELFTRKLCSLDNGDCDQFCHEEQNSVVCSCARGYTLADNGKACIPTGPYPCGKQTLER
Chain of Coagulation factor X (Homo sapiens) (P00742 235-488 limits assumed): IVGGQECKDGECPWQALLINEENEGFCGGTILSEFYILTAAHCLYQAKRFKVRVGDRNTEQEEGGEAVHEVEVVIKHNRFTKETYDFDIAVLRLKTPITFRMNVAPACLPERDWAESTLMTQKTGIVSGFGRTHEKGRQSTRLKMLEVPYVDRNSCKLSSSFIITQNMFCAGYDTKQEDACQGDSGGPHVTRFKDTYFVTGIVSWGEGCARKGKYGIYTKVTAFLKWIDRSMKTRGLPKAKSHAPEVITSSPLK

Compound	K ass [1] [L/mol]	PT [2] [µM]	also measured
COc1cccc(C(=O)Nc2ccccc2NC(=O)OCC2CCN(c3ccncc3)CC2)c1	3.3e+06	10	–
Cc1cccc(C(=O)Nc2ccccc2NC(=O)OCC2CCN(c3ccncc3)CC2)c1	5.9e+06	–	–
O=C(Nc1ccccc1NC(=O)C1C=CCCC1)OCC1CCN(c2ccncc2)CC1 (stereo unspecified)	200000	–	–
COc1ccc(C(=O)Nc2ccccc2NC(=O)C2CCN(c3ccncc3)CC2)cc1	2e+06	9.7	–
O=C(Nc1ccccc1NC(=O)c1cccc(F)c1)OCC1CCN(c2ccncc2)CC1	2.5e+06	17	–
O=C(Nc1ccccc1NC(=O)C1CCCCC1)OCC1CCN(c2ccncc2)CC1	40000	–	–
O=C(Nc1ccccc1NC(=O)c1ccc(Cl)o1)OCC1CCN(c2ccncc2)CC1	700000	–	–
O=C(Nc1ccccc1NC(=O)c1cccc(Cl)c1Cl)OCC1CCN(c2ccncc2)CC1	1.9e+07	5	–
Nc1cccc(C(=O)Nc2ccccc2NC(=O)OCC2CCN(c3ccncc3)CC2)c1	5.1e+06	8	–
Cc1ccc(C(=O)Nc2ccccc2NC(=O)OCC2CCN(c3ccncc3)CC2)cc1Cl	2.3e+06	22	–
O=C(Nc1ccccc1NC(=O)C1=CCCCC1)OCC1CCN(c2ccncc2)CC1	900000	–	–
O=C(Nc1ccccc1NC(=O)C1=CCCC1)OCC1CCN(c2ccncc2)CC1	700000	–	–
O=C(Nc1ccccc1NC(=O)c1ccccc1Cl)OCC1CCN(c2ccncc2)CC1	300000	–	–
COc1ccc(C(=O)Nc2ccccc2NC(=O)c2ccc(C(C)(C)C)cc2)cc1	7e+06	> 50	–
CC(C)(C)c1ccc(C(=O)Nc2ccccc2NC(=O)c2cccc(C(=N)N)c2)cc1	2.42e+08	0.9	–
COc1ccc(C(=O)Nc2ccccc2NC(=O)OCC2CCN(c3ccncc3)CC2)cc1F	46	1.1	–
O=C(Nc1ccccc1NC(=O)c1ccc(Cl)s1)OCC1CCN(c2ccncc2)CC1	3.3e+07	2.6	–
O=C(Nc1ccccc1NC(=O)c1ccc2cc[nH]c2c1)OCC1CCN(c2ccncc2)CC1	5.4e+07	1.6	–
O=C(Nc1ccccc1NC(=O)c1ccc2c(c1)CCO2)OCC1CCN(c2ccncc2)CC1	600000	–	–
COc1ccccc1C(=O)Nc1ccccc1NC(=O)OCC1CCN(c2ccncc2)CC1	20000	–	–
Cc1ccc(C(=O)Nc2ccccc2NC(=O)OCC2CCN(c3ccncc3)CC2)cc1F	5.8e+06	7	–

Now from value to molecule, other results behind:

K ass [1] [L/mol]	PT [2] [µM]	Compound	also measured
1.6e+06	–	O=C(Nc1ccccc1NC(=O)c1ccccc1)OCC1CCN(c2ccncc2)CC1	–
5e+06	6	O=C(Nc1ccccc1NC(=O)c1ccc(OC(F)F)cc1)OCC1CCN(c2ccncc2)CC1	–
1.4e+07	6	O=C(Nc1ccccc1NC(=O)c1ccc(I)cc1)OCC1CCN(c2ccncc2)CC1	–
4.6e+06	–	O=C(Nc1ccccc1NC(=O)c1ccc(F)cc1)OCC1CCN(c2ccncc2)CC1	–
600000	–	N#Cc1ccc(C(=O)Nc2ccccc2NC(=O)OCC2CCN(c3ccncc3)CC2)cc1	–
6.3e+06	8	Cc1ccc(C(=O)Nc2ccccc2NC(=O)OCC2CCN(c3ccncc3)CC2)cc1	–
4.1e+06	12	O=C(Nc1ccccc1NC(=O)c1cccc(Cl)c1)OCC1CCN(c2ccncc2)CC1	–
3.8e+07	1.8	O=C(Nc1ccccc1NC(=O)c1ccc(Br)cc1)OCC1CCN(c2ccncc2)CC1	–
1e+06	–	O=C(Nc1ccccc1NC(=O)c1cccc(O)c1)OCC1CCN(c2ccncc2)CC1	–
3.5e+07	1.9	O=C(Nc1ccccc1NC(=O)c1ccc(Cl)cc1)OCC1CCN(c2ccncc2)CC1	Ka [3]: < 10000 L/mol; Ka [4]: 20000 L/mol; Ka [5]: < 10000 L/mol; Ka [6]: < 10000 L/mol; Ka [7]: < 10000 L/mol
1.9e+07	1.9	COc1ccc(C(=O)Nc2ccccc2NC(=O)OCC2CCN(c3ccncc3)CC2)cc1	–
